Assay results taken from US6924306B2, “Method for treating ocular hypertension” (priority 2000, dated 2005).
Where two headings read alike, the source gives them in different places.

Columns and labels:
[1] = biological target: T1, [125I]ChTX receptor in bovine aortic sarcolemma membrane vesicles (Bos taurus, UniProt Q28204); test: [125I]ChTX binding assay with sarcolemma membrane vesicles; settings: for inhibition at 10 µM: read-out: inhibition of [125I]ChTX binding
T1 construct: bovine aortic sarcolemma membrane vesicles; from tissue; host or cells: bovine aortic sarcolemma membrane vesicles
Protocol: The interaction of [^125I]ChTX with bovine aortic sarcolemma membrane vesicles was determined under conditions as described (Vazquez et al., 1989, J. Biol. Chem. 264, 20902-20909). Briefly, sarcolemma membrane vesicles were incubated in 12×75 polystyrene tubes with ca. 25 pM [^125I]ChTX (2200 Ci/mmol), in the absence or presence of test compound, in a media consisting of 20 mM NaCl, 20 mM Tris-HCl pH 7.4, 0.1% bovine serum albumin, 0.1% digitonin. Nonspecific binding was determined in the presence of 10 nM ChTX. Incubations were carried out at room temperature until ligand binding equilibrium is achieved at ca. 90 min. At the end of the incubation period, samples were diluted with 4 mL ice-cold 100 mM NaCl, 20 mM Hepes-Tris pH 7.4 and filtered through GF/C glass fiber filters that have been presoaked in 0.5% polyethylenimine. Filters were rinsed twice with 4 mL ice-cold quench solution. Radioactivity associated with filters was determined in a gamma counter. Specific binding data in the presence of each compound (difference between total binding and nonspecific binding) was assessed relative to an untreated control.

[2] = biological target: T2, large-conductance calcium-activated potassium (maxi-K) channels from bovine aortic smooth muscle (Bos taurus, UniProt Q28204); test: Patch clamp recordings of maxi-K channel currents in excised inside-out membrane patches; type: biochemical; settings: for block of channel activity / effect on channel open probability: 1 μM
T2 construct: membrane patches excised from cultured bovine aortic smooth muscle cells; endogenous in cells; host or cells: cultured bovine aortic smooth muscle cells
Protocol: Pipettes were typically filled with solutions containing (mM): 150 KCl, 10 Hepes (4-(2-hydroxyethyl)-1-piperazine […]), 1 Mg, 0.01 Ca, and adjusted to pH 7.20 with 3.7 mM KOH. After forming a high resistance (>10^9 ohms) seal between the sarcolemmal membrane and the pipette, the pipette was withdrawn from the cell, forming an excised inside-out membrane patch. […] An AXOPATCH 1C amplifier (Axon Instruments, Foster City, Calif.) with a CV-4 headstage was used to control the voltage and to measure the currents flowing across the membrane patch. The input to the headstage was connected to the pipette solution with a Ag/AgCl wire, and the amplifier ground was connected to the bath solution with a Ag/AgCl wire covered with a tube filled with agar dissolved in 0.2 M KCl. Maxi-K channels were identified by their large single channel conductance (˜250 pS) and sensitivity of channel open probability to membrane potential and intracellular calcium concentration.
Data were stored on a RACAL STORE 4DS FM tape recorder (Racal Recorders, Vienna, Va.) or on digital video tape using a video casette recorder after digitizing the signal with VR-10 (Instrutech Corp., Belmont, N.Y.) PCM video encoder. The signal was also recorded on chart paper with a GOULD 2400S chart recorder (Gould Inc., Cleveland, Ohio). For quantitative analysis, the data was played into a DEC 11-73 (Digital Equipment Corp., Maynard, Mass.) after digitization with a DT2782-8D1A analogue to digital converter (Data Translation Inc., Marlboro, Mass.), or played into a Mac IIx or Quadra 700 computer (Apple Computers) after digitization with an ITC-16 interface (Instrutech Corp., Belmont, N.Y.).

[3] = concentrations from 1 nM to 100 μM

T2 sequence (Q28204 whole entry): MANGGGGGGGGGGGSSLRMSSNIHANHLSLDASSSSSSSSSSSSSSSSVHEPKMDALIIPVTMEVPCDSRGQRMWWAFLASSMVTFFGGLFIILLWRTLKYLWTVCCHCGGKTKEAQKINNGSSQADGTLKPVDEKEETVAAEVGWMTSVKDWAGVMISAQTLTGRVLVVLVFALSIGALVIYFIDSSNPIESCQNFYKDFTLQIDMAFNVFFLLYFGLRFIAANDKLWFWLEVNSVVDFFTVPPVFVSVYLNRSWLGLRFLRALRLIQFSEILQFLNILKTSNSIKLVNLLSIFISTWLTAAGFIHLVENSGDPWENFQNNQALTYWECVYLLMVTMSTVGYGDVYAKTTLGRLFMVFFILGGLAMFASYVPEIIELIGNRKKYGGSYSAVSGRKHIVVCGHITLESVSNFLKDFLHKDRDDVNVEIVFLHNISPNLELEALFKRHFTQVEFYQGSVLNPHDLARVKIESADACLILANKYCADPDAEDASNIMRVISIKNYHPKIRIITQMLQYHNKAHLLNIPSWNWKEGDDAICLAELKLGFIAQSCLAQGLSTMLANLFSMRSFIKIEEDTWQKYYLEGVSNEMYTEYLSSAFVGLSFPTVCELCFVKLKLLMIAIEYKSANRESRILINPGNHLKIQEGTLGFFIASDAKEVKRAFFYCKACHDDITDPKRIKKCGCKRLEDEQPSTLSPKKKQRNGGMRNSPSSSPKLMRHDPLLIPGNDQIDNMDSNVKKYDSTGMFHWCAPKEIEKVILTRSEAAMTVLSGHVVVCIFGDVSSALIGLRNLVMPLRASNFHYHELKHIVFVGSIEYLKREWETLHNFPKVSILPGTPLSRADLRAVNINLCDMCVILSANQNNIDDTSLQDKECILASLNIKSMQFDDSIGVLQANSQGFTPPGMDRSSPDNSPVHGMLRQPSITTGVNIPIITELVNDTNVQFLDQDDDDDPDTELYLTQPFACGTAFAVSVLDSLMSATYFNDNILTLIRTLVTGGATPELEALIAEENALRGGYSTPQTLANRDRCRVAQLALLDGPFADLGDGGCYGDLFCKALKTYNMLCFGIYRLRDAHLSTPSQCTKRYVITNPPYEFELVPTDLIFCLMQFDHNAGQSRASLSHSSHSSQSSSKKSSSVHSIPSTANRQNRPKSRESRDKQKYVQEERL
T2 sequence (Q28067 whole entry partner): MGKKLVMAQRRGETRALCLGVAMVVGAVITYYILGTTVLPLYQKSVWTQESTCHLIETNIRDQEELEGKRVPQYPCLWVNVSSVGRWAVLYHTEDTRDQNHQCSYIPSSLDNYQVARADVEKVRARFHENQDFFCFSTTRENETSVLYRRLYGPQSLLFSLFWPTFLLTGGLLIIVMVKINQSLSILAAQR
T1 sequence (Q28204 whole entry): as the sequence (Q28204 whole entry) above
T1 sequence (Q28067 whole entry partner): as the sequence (Q28067 whole entry partner) above

CC(C)(O)[C@@H]1CC(O)C2(C(=O)O)C(CC[C@@]3(C)[C@H]2CC[C@H]2Cc4c([nH]c5ccccc45)[C@@]23C)O1 (stereo partly drawn) [Compound D, hydroxypaspalinic acid]
effect on [125I]ChTX binding [1, 3]: did not have any effect | IC50 [2]: ~1000 nM | strength as blocker of maxi-K channels compared with Compound C [2]: weaker | reduction in channel open probability ([2]; 10 nM): < 50% | block of channel activity / effect on channel open probability [2]: complete block was not observed

CC1(C)ON=C2C=C3[C@H](CC[C@@]4(C)[C@@]3(O)CC[C@H]3Cc5c([nH]c6ccccc56)[C@@]34C)O[C@@H]21 [Compound F, Paxizoline]
effect on [125I]ChTX binding ([1]; concentrations above 5 μM): concentration-dependent inhibition | effect on amount of toxin bound to its receptor ([1]; range of 50 nM to 2 μM): small increase | maximum level of inhibition (saturation) ([1]; tested from 1 nM to 100 μM): ca. 32 % control | decrease in channel activity ([2]; 10 nM): ~50% | IC50 ([2]; excised inside-out patches, compound added to bath, read-out: [50% CHANNEL BLOCK]): ~10 nM

CC(C)=CCOC(C)(C)[C@@H]1CC2OC23[C@H](CC[C@@]2(C)[C@H]3CC[C@H]3Cc4c([nH]c5ccccc45)[C@@]32C)O1 (stereo partly drawn) [Compound A]
inhibition at 10 µM [1]: 2% | IC50 [2]: ~100 nM | strength as blocker of maxi-K channels compared with Compound C [2]: weaker | block of maxi-K channels ([2]; 10 nM): blocked a small fraction of channel activity | block of channel activity ([2]; 100 nM): approximately one half | block of channel activity / effect on channel open probability [2]: nearly all

COC(=O)C12C(O)C[C@@H](C(C)(C)O)OC1CC[C@@]1(C)[C@H]2CC[C@H]2Cc3c([nH]c4ccccc34)[C@@]21C (stereo partly drawn) [Compound E, methyl hydroxypaspalinate]
effect on [125I]ChTX binding [1, 3]: did not affect | IC50 [2]: > 10000 nM | strength as blocker of maxi-K channels compared with Compound C [2]: weaker | block of channel activity / effect on channel open probability [2]: no significant effect | block of channel activity ([2]; 10 μM, slowly increasing over 5-10 minutes): incomplete block

CC(C)=CCc1cccc2[nH]c3c(c12)C[C@@H]1CC[C@@]2(O)C45OC4[C@@H]4OC(C=C(C)C)OC(C)(C)[C@H]4OC5=CC[C@]2(C)[C@@]31C (stereo partly drawn) [Compound C]
inhibition at 10 µM [1]: 29% | IC50 [2]: < 10 nM | block of maxi-K channels ([2]; 10 nM): rapid and complete block | reversal of block during washout ([2]; 10 nM, brief (~10 min) washout): not reversed

CC(C)=CC1O[C@H]2C3OC34C(=CC[C@]3(C)[C@@]5(C)c6[nH]c7cccc(CC8OC8(C)C)c7c6C[C@@H]5CC[C@@]43O)O[C@@H]2C(C)(C)O1 (stereo partly drawn) [Compound G]
inhibition at 10 µM [1]: 35% | IC50 [2]: < 0.1 nM | channels blocked ([2]; 0.1 nM): 82% | channels blocked ([2]; 1 nM): 98.6% | channel block ([2]; 10 nm): > 99%

CC(C)=CCOC(C)(C)[C@H]1O[C@H]2CC[C@]3(C)[C@@]4(C)c5[nH]c6ccc(CC=C(C)C)cc6c5C[C@@H]4CC[C@@]3(O)C23OC3[C@@H]1O (stereo partly drawn) [Compound B]
IC50 [2]: < 1 nM | Ki [2]: < 1 nM | block of maxi-K channels ([2]; 1 nM): nearly complete block
